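Interpolation was linear, between the two tested concentrations surrounding the appropriate level; five concentrations were tested over 48 hours in 96-well plates. GI50: concentration for 50% inhibition of growth.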 Active and inactive are the calls of the source. No stated cut-off is given here; in the data, active = GI50 up to about 1.1 µM and inactive = higher.
Experiments:
Experiment in all cases: NCI-60 cell line screen, 48 h
786-0 = system: 786-0
A498 = system: A498
A549 = system: A549
CCRF-CEM = system: CCRF-CEM
DU-145 = system: DU-145
HL-60 = system: HL-60
HOP-92 = system: HOP-92
M14 = system: M14
MDA-MB-435 = system: MDA-MB-435
MOLT-4 = system: MOLT-4
NCI-H226 = system: NCI-H226
NCI-H522 = system: NCI-H522
OVCAR-4 = system: OVCAR-4
OVCAR-5 = system: OVCAR-5
OVCAR-8 = system: OVCAR-8
SF-295 = system: SF-295
SK-MEL-28 = system: SK-MEL-28
TK-10 = system: TK-10
U-251 = system: U-251
UACC-62 = system: UACC-62

Measured: GI50

CCOP1(=O)CC(C)=C(Cl)C(OC)C1 (stereo unspecified)
inactive: 786-0 > 100 µM | A498 > 100 µM | A549 > 100 µM | CCRF-CEM 30.1 µM | DU-145 > 100 µM | HL-60 57.1 µM | HOP-92 > 100 µM | M14 > 100 µM | MDA-MB-435 > 100 µM | MOLT-4 > 100 µM | NCI-H226 > 100 µM | NCI-H522 34 µM | OVCAR-4 > 100 µM | OVCAR-5 > 100 µM | OVCAR-8 > 100 µM | SF-295 > 100 µM | SK-MEL-28 > 100 µM | TK-10 > 100 µM | U-251 > 100 µM | UACC-62 > 100 µM

O=C1CSC2(CC(/C=C/c3ccccc3)=NN2c2cccc(S(=O)(=O)O)c2)N1c1nc2ccccc2s1 (stereo unspecified)
inactive: 786-0 18.3 µM | A498 26 µM | A549 32.8 µM | CCRF-CEM 19.1 µM | DU-145 25.4 µM | HL-60 27 µM | HOP-92 21.7 µM | M14 41.3 µM | MDA-MB-435 19.5 µM | MOLT-4 24.9 µM | NCI-H226 37.5 µM | NCI-H522 19.5 µM | OVCAR-4 20.9 µM | OVCAR-5 27.8 µM | OVCAR-8 17.9 µM | SK-MEL-28 62.4 µM | TK-10 19.5 µM | U-251 20.6 µM | UACC-62 18.9 µM

N#CC12C(=O)N3C(=NC(c4ccco4)NC3c3ccco3)C1(C#N)C(c1ccco1)NC1=C2CCCC1 (stereo unspecified)
inactive: 786-0 > 100 µM | A498 > 100 µM | A549 > 100 µM | DU-145 > 100 µM | HL-60 > 100 µM | HOP-92 > 100 µM | M14 > 100 µM | MDA-MB-435 > 100 µM | MOLT-4 > 100 µM | NCI-H226 > 100 µM | NCI-H522 73.1 µM | OVCAR-4 > 100 µM | OVCAR-5 > 100 µM | OVCAR-8 > 100 µM | SF-295 > 100 µM | SK-MEL-28 > 100 µM | TK-10 > 100 µM | U-251 > 100 µM | UACC-62 > 100 µM

C/C=C(\C)[C@@H](O)C(=O)O[C@@H]1CC(C(C)(C)O)[C@](C)(CCC(=O)OC)[C@H]2[C@H](OC(=O)[C@H](O)[C@H](C)CC)C[C@]3(C)C(=CC[C@H]3[C@H]3CO[C@H](C=C(C)C)C3)[C@]12C (stereo partly specified)
inactive: 786-0 16 µM | A498 22.4 µM | A549 20.9 µM | DU-145 29 µM | HL-60 16.7 µM | HOP-92 23.3 µM | M14 18.2 µM | MDA-MB-435 22.1 µM | MOLT-4 19.7 µM | NCI-H226 19.1 µM | NCI-H522 14.9 µM | OVCAR-4 19.8 µM | OVCAR-5 20.5 µM | OVCAR-8 17.7 µM | SF-295 35.4 µM | SK-MEL-28 21.6 µM | TK-10 24.2 µM | U-251 18.8 µM

C=CC[C@@]1([C@H](C=C)COCc2ccc(OC)cc2)CC[C@]2(C)OC(C)(C)[C@@H](c3ccccc3)N2C1=S
inactive: 786-0 58.6 µM | A498 71.3 µM | A549 60.8 µM | CCRF-CEM 46.5 µM | DU-145 54.5 µM | HL-60 22.4 µM | HOP-92 30 µM | M14 35.3 µM | MDA-MB-435 > 100 µM | MOLT-4 52.4 µM | NCI-H226 39.5 µM | NCI-H522 20.9 µM | OVCAR-4 40.7 µM | OVCAR-5 50 µM | OVCAR-8 48.5 µM | SF-295 43.1 µM | SK-MEL-28 57.1 µM | TK-10 52.7 µM | U-251 34.2 µM | UACC-62 28.2 µM

OC[C@H]1CCCC1O (stereo partly specified)
inactive: 786-0 > 100 µM | A498 > 100 µM | A549 > 100 µM | CCRF-CEM > 100 µM | DU-145 > 100 µM | HL-60 > 100 µM | HOP-92 > 100 µM | M14 > 100 µM | MDA-MB-435 > 100 µM | MOLT-4 > 100 µM | NCI-H226 > 100 µM | NCI-H522 > 100 µM | OVCAR-4 > 100 µM | OVCAR-5 > 100 µM | OVCAR-8 > 100 µM | SF-295 > 100 µM | SK-MEL-28 > 100 µM | TK-10 > 100 µM | U-251 > 100 µM | UACC-62 > 100 µM

Cc1csc(-c2cn(C)c3c2C(=O)C(=N)C=C3O)n1
inactive: 786-0 32.4 µM | A498 12.2 µM | A549 2.65 µM | CCRF-CEM 5.31 µM | DU-145 4.12 µM | HL-60 1.58 µM | HOP-92 > 100 µM | M14 3.74 µM | MDA-MB-435 4.28 µM | MOLT-4 3.18 µM | NCI-H226 8.39 µM | NCI-H522 13.6 µM | OVCAR-4 > 100 µM | OVCAR-5 42.4 µM | OVCAR-8 6.34 µM | SF-295 2.37 µM | SK-MEL-28 20.3 µM | TK-10 46.1 µM | U-251 37.1 µM | UACC-62 7.59 µM

Reference: ChEMBL document CHEMBL1201862, “PubChem BioAssay data set” (2004)
